Like-named read-outs stand apart in the source and are kept apart here.
Columns and labels:
MDBK cells [1] = experiment: Cytotoxicity assay (cell viability, crystal violet staining); format: cell-based, Bos taurus
Procedure: (§1) MDBK cells (Bos taurus kidney, ATCC CCL-22) were purchased from ATCC and grown in Dulbecso's modified Eagle medium (DMEM) supplemented with 10% fetal bovine serum and antibiotics under 5% CO2 at 37°C. For infections, cells were cultivated in DMEM supplemented with 2% Horse serum and antibiotics under 5% CO2 at 37°C.
(§2) Cell viability assays were performed on confluent cell cultures in 96 well plates (~15,000 cells per well). For each compound, cells were treated with serial dilutions of the compound in quadruplicates and incubated at 37°C for 3 days. Then, cell viability was measured using crystal violet staining. Briefly, cells were fixed with 10% formaldehyde, stained with crystal violet solution (20% Ethanol, 0.1% Crystal Violet), and after washing, the absorbance at 595 nm was recorded for each well in a spectrophotometer. Assays were conducted at least in duplicates, and the cytotoxic concentration 50 (CC50) was estimated by a nonlinear regression fitting of five data points as the compound concentration necessary to reduce cell viability by 50% compared to control non-treated cells.

BVDV [2] = tested on: BVDV; set-up: method as in Pascual et al. (2018); conditions: MDBK cells infected with cpBVDV/Npro GFP; ref Pascual et al. (2018); cited from earlier work
MDBK cells [3] = tested on: MDBK cells; set-up: method as in Pascual et al. (2018); conditions: ref Pascual et al. (2018), cited from earlier work
BVDV cell entry = tested on: BVDV cell entry; set-up: method as in Pascual et al., 2018; conditions: previously shown; ref Pascual et al., 2018; cited from earlier work
[4] = Cytotoxicity assay (cell viability, crystal violet staining); format: cell-based, Bos taurus; conditions: cattle (Bos taurus), MDBK cells, 3 days at 37°C, mean and SD of at least two independent experiments
Procedure: as §1, §2

BVDV [5] = experiment: Reporter-based assay for antiviral activity (cpBVDV/Npro GFP, flow cytometry); format: cell-based, Bovine viral diarrhea virus; conditions: read-out: IC50 BVDV
Procedure: Antiviral activity was evaluated in a reporter-based assay using a recombinant virus expressing GFP, cpBVDV/Npro GFP (Pascual et al., [2018]). MDBK cells were seeded onto 24 well plates, infected with cpBVDV/Npro GFP at a multiplicity of infection of 0.1 in the presence of increasing concentrations of compounds. At 48 h post-infection cells were thoroughly washed, lifted with trypsin 0.05% and fixed using 4% paraformaldehyde in PBS. The fluorescence signal was measured using a flow cytometer (CyFlow® Space, Partec) at a detection spectrum of 488 nm. Data were analyzed in the FlowJo 7.6.2 software package. The inhibitory concentrations 50 (IC50s) for the compounds tested in the assay were calculated from curves constructed by plotting the percentage of infected cells versus the concentration of compound as the compound concentration necessary to reduce the number of infected cells by 50% compared to control non-treated cells.
First, we assayed selected compounds for cytotoxicity in cultured cells. […] The remainder of the compounds were evaluated for antiviral activity in a reporter-based assay using a recombinant BVDV virus carrying GFP on its genome to infect MDBK cells (Pascual et al., [2018]). Expression of GFP induced by BVDV infection was measured 2 days after infection using flow cytometry. Inhibition of BVDV infection was assessed by comparing the number of GFP positive cells in non-treated control cells and in cells treated with increasing amounts of compound.

[6] = MDBK cells (bovine kidney, ATCC CCL-22)
[7] = Bovine viral diarrhea virus isolates and strains, MDBK, 48 h

“4-chloro-N-(isoxazol-5-yl)benzamide [Compound 15]” gave a CC50 (MDBK cells [1]) greater than 50 µM.
In the case of `OCCCc1nc2ccccc2[nH]1` [BI03], the IC50 (BVDV [2]) is given as 17.6 ± 6.4 µM, the “cytotoxicity at 50 μM” value (MDBK cells [3]) is given as “no cytotoxicity was detected” and the CC50 (MDBK cells [3]) is given as greater than 200 µM. The “block of BVDV cell entry” value (BVDV cell entry) was “specifically block BVDV cell entry”.
`c1ccc(CN2CCN(c3cccc4[nH]cnc34)CC2)cc1` [Compound 1] showed a CC50 at 3 days [4, 6] greater than 50 µM.
`C1=C(c2nc3ccccc3o2)CCN1Cc1ncc[nH]1` [Compound 2] gave a CC50 at 3 days [4, 6] greater than 50 µM and an IC50 (BVDV [5]; [7]) of 44.3 ± 10.3 µM.
`NNC(=O)c1ccccc1NC(=O)c1ccccc1` [Compound 3] gave a CC50 at 3 days [4] greater than 50 µM.
For `C[C@@H](Sc1nnc(-c2cccnc2)n1N)C(=O)Nc1cccc(C(F)(F)F)c1` [Compound 4], the “cytotoxicity at 50 μM” value (MDBK cells [1]; MDBK cells, 50 μM) was “no cytotoxicity was detected”, the CC50 at 3 days [4, 6] was greater than 50 µM and the IC50 (BVDV [5]; [7]) was 30.1 ± 2.9 µM.
Compound `Cc1cccc(Cl)c1NC(=N)NC(=N)N` [Compound 5] has a CC50 at 3 days [4, 6] greater than 50 µM.
With `O=C(NNC(=O)c1cc2cc(OC(F)(F)F)ccc2[nH]1)c1cccc(C(F)(F)F)c1` [Compound 6] the “cytotoxicity in cultured cells” value (MDBK cells [1]; MDBK cells, compound discarded from further analysis) was “high toxicity” and the CC50 at 3 days [4, 6] was 7.2 ± 1.3 µM.
`O=C(NCc1ccc2c(c1)OCO2)Oc1ccccc1` [Compound 7] gave a CC50 at 3 days [4] greater than 50 µM.
For `CCOC(=O)c1ccc2nc(NC(=O)c3cccc(Cl)c3)sc2c1` [Compound 8], the “cytotoxicity at 50 μM” value (MDBK cells [1]; MDBK cells, 50 μM) was “no cytotoxicity was detected”, the CC50 at 3 days [4, 6] was greater than 50 µM and the IC50 (BVDV [5]; [7]) was 20.2 ± 3.6 µM.
With `CS/C(=N\S(=O)(=O)c1ccc(-n2nc(C(F)(F)F)cc2-c2cccs2)cc1)N1CCCC1` [Compound 9] the CC50 at 3 days [4, 6] was greater than 50 µM.
`COc1ccccc1NC(=O)Cc1nnc(SCC(=O)Nc2cc(Cl)ccc2C)n1C` [Compound 10] gave a CC50 at 3 days [4, 6] greater than 50 µM.
In the case of `N=C(N)Nc1nc2ccccc2[nH]1` [Compound 12, 2-Guanidinobenzimidazole], the CC50 at 3 days [4, 6] is reported as greater than 50 µM and the IC50 (BVDV [5]; [7]) is reported as 44.4 ± 11.5 µM.
`O=C(OCCO)c1cccc2c1-c1ccccc1C2=O` [Compound 13] gave a CC50 at 3 days [4, 6] of 61.5 ± 1.4 µM.
In the case of `Cc1cc(NC(=O)CCC(=O)O)no1` [Compound 14, 4-((5-methylisoxazol-3-yl)amino)-4-oxobutanoic acid], the CC50 at 3 days [4, 6] is reported as greater than 50 µM.
In the case of `O=C(Nc1ccc(OC(F)(F)F)cc1)c1ccco1` [Compound 16, N-(4-(trifluoromethoxy)phenyl)furan-2-carboxamide], the CC50 at 3 days [4, 6] is reported as 49.8 ± 1.5 µM.
For `Cc1ccc(CNC(=N)NC(=N)N)cc1` [Compound 17], the CC50 at 3 days [4, 6] was greater than 50 µM.
In the case of `COc1ccc(C(=O)Nc2cc(-c3ccccc3)sc2C(N)=O)cc1OC` [PTC12], the IC50 (BVDV [2]) is given as 0.3 ± 0.1 µM, the “cytotoxicity at 50 μM” value (MDBK cells [3]) is given as “no cytotoxicity was detected” and the CC50 (MDBK cells [3]) is given as 89.5 ± 1.1 µM. The “block of BVDV cell entry” value (BVDV cell entry) was “specifically block BVDV cell entry”.
With “(E)-2-(4-(dimethylamino)benzylidene)-N-(4-(trifluoromethyl)phenyl)hydrazinecarbothioamide [Compound 11]” the CC50 (MDBK cells [1]) was greater than 50 µM, the “cytotoxicity at 50 μM” value (MDBK cells [1]) was “no cytotoxicity was detected” and the IC50 (BVDV [5]; MDBK cells infected with cpBVDV/Npro GFP, MOI 0.1, 48 h post-infection, mean and SD of at least two independent experiments, NA = assayed but not active) was 23.9 ± 7.9 µM.

Reference: publication PMC5879447, “Discovery of Novel Bovine Viral Diarrhea Inhibitors Using Structure-Based Virtual Screening on the Envelope Protein E2” (Frontiers in Chemistry, 2018)
